From patent US7410963B2, “Benzo-1,4-diazepin-2-one derivatives as phosphodiesterase PDE2 inhibitors, preparation and therapeutic use thereof” (VIA Pharmaceuticals, Inc., priority 2003, dated 2008)
Read-outs that look alike come from different tables or passages of the source.

Target: T1, PDE2 (Bos taurus, UniProt P14099)
T1 sequence (P14099 1-921): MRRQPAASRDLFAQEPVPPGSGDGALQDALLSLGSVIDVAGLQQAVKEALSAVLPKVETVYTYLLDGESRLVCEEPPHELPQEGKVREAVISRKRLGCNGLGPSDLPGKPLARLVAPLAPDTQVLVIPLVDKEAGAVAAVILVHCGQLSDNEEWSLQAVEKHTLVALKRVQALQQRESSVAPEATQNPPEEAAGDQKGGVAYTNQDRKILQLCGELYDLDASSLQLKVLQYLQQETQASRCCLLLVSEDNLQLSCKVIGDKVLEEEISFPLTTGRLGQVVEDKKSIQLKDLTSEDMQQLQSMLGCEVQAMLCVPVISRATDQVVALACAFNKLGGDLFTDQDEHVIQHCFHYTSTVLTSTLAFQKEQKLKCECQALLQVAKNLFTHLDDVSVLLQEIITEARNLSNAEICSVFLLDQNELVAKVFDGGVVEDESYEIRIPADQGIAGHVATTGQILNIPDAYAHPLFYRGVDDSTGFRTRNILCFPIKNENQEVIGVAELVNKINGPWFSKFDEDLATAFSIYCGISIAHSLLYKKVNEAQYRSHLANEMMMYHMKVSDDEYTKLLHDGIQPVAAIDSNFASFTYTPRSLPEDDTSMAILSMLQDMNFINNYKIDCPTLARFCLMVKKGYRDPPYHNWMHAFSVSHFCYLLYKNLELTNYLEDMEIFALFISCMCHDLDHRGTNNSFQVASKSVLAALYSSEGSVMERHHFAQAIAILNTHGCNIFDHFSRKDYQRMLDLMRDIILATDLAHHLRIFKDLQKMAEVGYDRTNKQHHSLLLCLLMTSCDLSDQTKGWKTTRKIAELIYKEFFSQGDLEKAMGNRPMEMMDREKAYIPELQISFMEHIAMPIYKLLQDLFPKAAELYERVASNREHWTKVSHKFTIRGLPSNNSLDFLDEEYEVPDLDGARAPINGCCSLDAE
Assay: Radioenzymatic phosphodiesterase assay: PDE2 inhibition
Format: biochemical, bovine
Conditions: read-out: PDE2 percentage of inhibition at 10 μM
Experimental: Nucleoside radioactivity was determined by liquid scintillation.

Q: COc1ccccc1-c1cc2c(cc1Oc1ccccc1)N(C)C(=O)CN=C2c1cccc(C#N)c1 [Example 70, 3-[7-(2-Methoxy-phenyl)-1-methyl-2-oxo-8-phenoxy-2,3-dihydro-1H-benzo[e][1,4]diazepin-5-yl]-benzonitrile] was tested. Which inhibition at 10 µM did it give?
A: 95%

Q: Which inhibition at 10 µM does the source give for CN1C(=O)CN=C(c2cccc(C#N)c2)c2cc(-c3ccccc3Cl)c(Oc3ccccc3)cc21 [Example 71, 3-[7-(2-Chloro-phenyl)-1-methyl-2-oxo-8-phenoxy-2,3-dihydro-1H-benzo[e][1,4]diazepin-5-yl]-benzonitrile] here?
A: 82%

Q: Which inhibition at 10 µM does the source give for CN1C(=O)CN=C(c2cccc(C(N)=O)c2)c2cc(-c3ccccc3)c(Oc3ccccc3)cc21 [Example 72, 3-(1-Methyl-2-oxo-8-phenoxy-7-phenyl-2,3-dihydro-1H-benzo[e][1,4]diazepin-5-yl)-benzamide] here?
A: 28%

Q: How did the inhibition at 10 µM turn out when CN1C(=O)CN=C(c2cccc(C(N)=O)c2)c2cc(-c3ccccc3Cl)c(Oc3ccccc3)cc21 [Example 73, 3-[7-(2-Chloro-phenyl)-1-methyl-2-oxo-8-phenoxy-2,3-dihydro-1H-benzo[e][1,4]diazepin-5-yl]-benzamide] was run?
A: 96%

Q: COc1ccccc1-c1cc2c(cc1Oc1ccccc1)N(C)C(=O)CN=C2c1cccc(C(N)=O)c1 [Example 74, 3-[7-(2-Methoxy-phenyl)-1-methyl-2-oxo-8-phenoxy-2,3-dihydro-1H-benzo[e][1,4]diazepin-5-yl]-benzamide] was tested. Which inhibition at 10 µM (Table 1, 10 μM test compound) did it give?
A: 98%

Q: How did the inhibition at 10 µM (Table 1, 10 μM test compound) turn out when COc1ccc(C2=NCC(=O)Nc3cc(OC)c(-c4ccccc4)cc32)cc1 [Example 76, 5-(4-Methoxy-phenyl)-8-methoxy-7-phenyl-1,3-dihydro-benzo[e][1,4]diazepin-2-one] was run?
A: 91%

Q: With COc1cccc(OC)c1-c1ccc2c(c1)C(c1ccc(C)c([N+](=O)[O-])c1)=NCC(=O)N2C [Example 77, 7-(2,6-Dimethoxy-phenyl)-1-methyl-5-(4-methyl-3-nitro-phenyl)-1,3-dihydro-benzo[e][1,4]diazepin-2-one] as the compound, how does the inhibition at 10 µM read?
A: 99%

Q: COc1cc2c(cc1-c1ccccc1OC(C)C)C(c1cccc(C(N)=O)c1)=NCC(=O)N2C [Example 78, 3-[7-(2-Isopropoxy-phenyl)-8-methoxy-1-methyl-2-oxo-2,3-dihydro-1H-benzo[e][1,4]diazepin-5-yl]-benzamide] was tested. Which inhibition at 10 µM did it give?
A: 97%

Q: How did the inhibition at 10 µM (Table 1, 10 μM test compound) turn out when COc1cccc(C2=NCC(=O)N(C)c3ccc(-c4ccccc4)cc32)c1 [Example 79, 5-(3-Methoxy-phenyl)-1-methyl-7-phenyl-1,3-dihydro-benzo[e][1,4]diazepin-2-one] was run?
A: 84%

Q: With COc1ccc(Cl)cc1-c1ccc2c(c1)C(c1cccc(C#N)c1)=NCC(=O)N2C [Example 81, 3-[7-(5-Chloro,2-methoxy-phenyl)-1-methyl-2-oxo-2,3-dihydro-1H-benzo[e][1,4]diazepin-5-yl]-benzonitrile] as the compound, how does the inhibition at 10 µM (Table 1, 10 μM test compound) read?
A: 22%

Q: With COc1cccc(Cl)c1-c1ccc2c(c1)C(c1cccc(C#N)c1)=NCC(=O)N2C [Example 82, 3-[7-(2-Chloro,6-methoxy-phenyl)-1-methyl-2-oxo-2,3-dihydro-1H-benzo[e][1,4]diazepin-5-yl]-benzonitrile] as the compound, how does the inhibition at 10 µM (Table 1, 10 μM test compound) read?
A: 92%

Q: For N#Cc1cccc(C2=NCC(=O)Nc3cc(OC(F)(F)F)c(-c4ccccc4)cc32)c1 [Example 85, 3-(2-Oxo-7-phenyl-8-trifluoromethoxy-2,3-dihydro-1H-benzo[e][1,4]diazepin-5-yl)-benzonitrile], which inhibition at 10 µM is on record?
A: 70%

Q: With CN1C(=O)CN=C(c2cccc(C#N)c2)c2cc(-c3ccccc3)c(OC(F)(F)F)cc21 [Example 86, 3-(1-Methyl-2-oxo-7-phenyl-8-trifluoromethoxy-2,3-dihydro-1H-benzo[e][1,4]diazepin-5-yl)-benzonitrile] as the compound, how does the inhibition at 10 µM read?
A: 85%

Q: How did the inhibition at 10 µM (Table 1, 10 μM test compound) turn out when CN1C(=O)CN=C(c2cccc(C(N)=O)c2)c2cc(-c3ccccc3)c(OC(F)(F)F)cc21 [Example 87, 3-(1-Methyl-2-oxo-7-phenyl-8-trifluoromethoxy-2,3-dihydro-1H-benzo[e][1,4]diazepin-5-yl)-benzamide] was run?
A: 93%

Q: How did the inhibition at 10 µM turn out when CN1C(=O)CN=C(c2cccc(C#N)c2)c2cc(-c3ccccc3Oc3ccccc3)ccc21 [Example 88, 3-[1-Methyl-2-oxo-7-(2-phenoxy-phenyl)-2,3-dihydro-1H-benzo[e][1,4]diazepin-5-yl]-benzonitrile] was run?
A: 89%

Q: How did the inhibition at 10 µM turn out when COc1cc2c(cc1-c1c(OC)cccc1OC)C(c1cccc(C#N)c1)=NCC(=O)N2C [Example 89, 3-[7-(2,6-Dimethoxy-phenyl)-8-methoxy-1-methyl-2-oxo-2,3-dihydro-1H-benzo[e][1,4]diazepin-5-yl]-benzonitrile] was run?
A: 99%

Q: COc1cc2c(cc1-c1ccccc1Oc1ccccc1)C(c1cccc(C#N)c1)=NCC(=O)N2C [Example 90, 3-[8-Methoxy-1-methyl-2-oxo-7-(2-phenoxy-phenyl)-2,3-dihydro-1H-benzo[e][1,4]diazepin-5-yl]-benzonitrile] was tested. Which inhibition at 10 µM did it give?
A: 98%

Q: CN1C(=O)CN=C(c2cccc(C(N)=O)c2)c2cc(-c3ccccc3Oc3ccccc3)ccc21 [Example 91, 3-[1-Methyl-2-oxo-7-(2-phenoxy-phenyl)-2,3-dihydro-1H-benzo[e][1,4]diazepin-5-yl]-benzamide] was tested. Which inhibition at 10 µM (Table 1, 10 μM test compound) did it give?
A: 96%

Q: How did the inhibition at 10 µM turn out when COc1cc2c(cc1-c1ccccc1)C(c1cccc(CCCCc3ccccc3)c1)=NCC(=O)N2C [Example 94, 8-Methoxy-1-methyl-7-phenyl-5-[3-(4-phenyl-butyl)-phenyl]-1,3-dihydro-benzo[e][1,4]diazepin-2-one] was run?
A: 79%

Q: Which inhibition at 10 µM does the source give for COCC#Cc1cccc(C2=NCC(=O)N(C)c3cc(OC)c(-c4ccccc4)cc32)c1 [Example 95, 8-Methoxy-5-[3-(3-methoxy-prop-1-ynyl)-phenyl]-1-methyl-7-phenyl-1,3-dihydro-benzo[e][1,4]diazepin-2-one] here?
A: 89%

Q: Which inhibition at 10 µM does the source give for COc1cc2c(cc1-c1ccccc1)C(c1ccc(C#CCNC(=O)OC(C)(C)C)cc1)=NCC(=O)N2C [Example 96, {3-[4-(8-Methoxy-1-methyl-2-oxo-7-phenyl-2,3-dihydro-1H-benzo[e][1,4]diazepin-5-yl)-phenyl]-prop-2-ynyl}-carbamic acid tert-butyl ester] here?
A: 21%

Q: With COc1cc2c(cc1-c1ccccc1)C(c1ccc(C#Cc3ccccc3)cc1)=NCC(=O)N2C [Example 97, 8-Methoxy-1-methyl-7-phenyl-5-(4-phenylethynyl-phenyl)-1,3-dihydro-benzo[e][1,4]diazepin-2-one] as the compound, how does the inhibition at 10 µM read?
A: 45%

Q: With COCC#Cc1ccc(C2=NCC(=O)N(C)c3cc(OC)c(-c4ccccc4)cc32)cc1 [Example 98, 8-Methoxy-5-[4-(3-methoxy-prop-1-ynyl)-phenyl]-1-methyl-7-phenyl-1,3-dihydro-benzo[e][1,4]diazepin-2-one] as the compound, how does the inhibition at 10 µM read?
A: 80%

Q: With COc1cccc(OC)c1-c1ccc2c(c1)C(c1ccc(Cl)c(Cl)c1)=NCC(=O)N2C [Example 99, 5-(3,4-Dichloro-phenyl)-7-(2,6-dimethoxy-phenyl)-1-methyl-1,3-dihydro-benzo[e][1,4]diazepin-2-one] as the compound, how does the inhibition at 10 µM read?
A: 98%

Q: Which inhibition at 10 µM does the source give for COc1ccc(C2=NCC(=O)N(C)c3ccc(-c4c(OC)cccc4OC)cc32)cc1OC [Example 101, 5-(3,4-Dimethoxy-phenyl)-7-(2,6-dimethoxy-phenyl)-1-methyl-1,3-dihydro-benzo[e][1,4]diazepin-2-one] here?
A: 99%
